Measured values from ChEMBL document CHEMBL2434949, “Evaluation of licorice flavonoids as protein tyrosine phosphatase 1B inhibitors” (Bioorg Med Chem Lett, 2013).
Calls of active or inactive are those of the source. No cut-off for these calls is given here.

Legend:
[1] = molecular target: T1, Tyrosine-protein phosphatase non-receptor type 1 (Homo sapiens) (UniProt P18031); test: Inhibition of PTP1B (unknown origin) using p-nitrophenyl phosphate as substrate at 100 uM
T1 sequence (whole entry): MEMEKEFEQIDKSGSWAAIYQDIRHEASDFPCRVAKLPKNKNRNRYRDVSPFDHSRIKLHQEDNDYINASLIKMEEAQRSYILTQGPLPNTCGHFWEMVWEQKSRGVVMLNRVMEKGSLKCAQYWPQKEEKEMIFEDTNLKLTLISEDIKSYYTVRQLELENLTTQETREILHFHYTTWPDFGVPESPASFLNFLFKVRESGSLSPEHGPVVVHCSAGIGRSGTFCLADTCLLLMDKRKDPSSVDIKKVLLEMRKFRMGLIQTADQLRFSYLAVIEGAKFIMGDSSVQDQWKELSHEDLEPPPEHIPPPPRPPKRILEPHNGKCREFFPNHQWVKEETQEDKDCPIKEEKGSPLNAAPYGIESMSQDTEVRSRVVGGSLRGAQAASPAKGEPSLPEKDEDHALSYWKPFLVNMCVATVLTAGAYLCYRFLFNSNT

[2] = molecular target: T2, Tyrosine-protein phosphatase non-receptor type 1 (Homo sapiens, UniProt P18031); test: Inhibition of PTP1B (unknown origin) using p-nitrophenyl phosphate as substrate
T2 sequence (P18031 whole entry): T1 sequence (whole entry)

[3] = molecular target: T3, Tyrosine-protein phosphatase non-receptor type 2 (Homo sapiens) (UniProt P17706); test: Inhibition of TCPTP (unknown origin) at 100 uM
T3 sequence (whole entry): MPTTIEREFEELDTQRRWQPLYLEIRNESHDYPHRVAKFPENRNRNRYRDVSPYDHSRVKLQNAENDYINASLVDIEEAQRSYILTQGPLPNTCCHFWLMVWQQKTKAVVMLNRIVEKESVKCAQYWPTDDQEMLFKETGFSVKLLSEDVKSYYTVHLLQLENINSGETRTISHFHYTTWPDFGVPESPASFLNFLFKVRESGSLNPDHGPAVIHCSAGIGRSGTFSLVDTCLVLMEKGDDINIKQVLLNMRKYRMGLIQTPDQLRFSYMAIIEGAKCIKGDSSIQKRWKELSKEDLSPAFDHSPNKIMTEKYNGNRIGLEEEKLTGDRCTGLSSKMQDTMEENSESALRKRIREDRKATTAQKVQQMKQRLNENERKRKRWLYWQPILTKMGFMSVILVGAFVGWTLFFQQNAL

[4] = molecular target: Dual specificity protein phosphatase 3 (Homo sapiens) (UniProt P51452); test: Inhibition of VHR (unknown origin) at 100 uM
Sequence of Dual specificity protein phosphatase 3 (Homo sapiens) (P51452 whole entry, looked up): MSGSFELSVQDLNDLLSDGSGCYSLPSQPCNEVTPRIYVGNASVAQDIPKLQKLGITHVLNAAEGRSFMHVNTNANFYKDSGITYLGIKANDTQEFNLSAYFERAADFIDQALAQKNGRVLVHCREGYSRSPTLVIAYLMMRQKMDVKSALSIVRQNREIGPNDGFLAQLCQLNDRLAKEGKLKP

[5] = molecular target: T1, Tyrosine-protein phosphatase non-receptor type 1 (Homo sapiens); test: Non-competitive inhibition of PTP1B (unknown origin) using p-nitrophenyl phosphate as substrate by Lineweaver-Burk plot analysis
[6] = molecular target: T1, Tyrosine-protein phosphatase non-receptor type 1 (Homo sapiens); test: Inhibition of PTP1B in human HepG2 cells assessed as increase of insulin-induced Akt phosphorylation at Ser473 at 20 to 100 uM after 5 mins by Western blotting; assay type: cell-based
[7] = molecular target: T1, Tyrosine-protein phosphatase non-receptor type 1 (Homo sapiens); test: Mixed type inhibition of PTP1B (unknown origin) using p-nitrophenyl phosphate as substrate by Lineweaver-Burk plot analysis
[8] = molecular target: T1, Tyrosine-protein phosphatase non-receptor type 1 (Homo sapiens)
Description: Competitive inhibition of PTP1B (unknown origin) using p-nitrophenyl phosphate as substrate by Lineweaver-Burk plot analysis

| Structure (SMILES) | inhibition [1] [%] | IC50 [2] [µM] | also measured |
| --- | --- | --- | --- |
| CC(C)=CCc1cc(-c2cc(=O)c3ccc(O)cc3o2)ccc1O | < 50 | – | – |
| COc1cc(O[C@@H]2O[C@H](CO)[C@@H](O)[C@H](O)[C@H]2O)c(-c2coc3cc(O)c(OC)cc3c2=O)cc1O | < 50 | – | – |
| CC(C)=CCc1cc(C(=O)C2(c3cc(O)c(O)cc3/C=C3\Oc4c(ccc(O)c4CC=C(C)C)C3=O)Oc3cc(O)c(CC=C(C)C)cc3C2=O)ccc1O (centres undefined) [LICOAGRONE] | – | 6 | inhibition [3]: 4%; inhibition [4]: > 70%; Kiuc [5]: 6.3 µM; Activity [6]: Active |
| COc1c(/C=C/C(=O)c2ccc(O)cc2)ccc(O)c1CC=C(C)C | – | 57 | – |
| CC(C)=CCc1c(O)ccc2c1O[C@H](c1ccc3c(c1)C(O)C(O)C(C)(C)O3)CC2=O (some centres undefined) | < 50 | – | – |
| CC(C)=CCc1cc([C@@H]2CC(=O)c3ccc(O)cc3O2)ccc1O | < 50 | – | – |
| COc1ccc(-c2coc3cc(O)c(OC)cc3c2=O)cc1 | < 50 | – | – |
| O=c1c(O[C@@H]2O[C@H](CO)[C@@H](O)[C@H](O)[C@H]2O)c(-c2ccc(O)cc2)oc2cc(O)cc(O)c12 | < 50 | – | – |
| O=c1c(O[C@@H]2O[C@H](CO)[C@@H](O)[C@H](O)[C@H]2O)c(-c2ccc(O)c(O)c2)oc2cc(O)cc(O)c12 | < 50 | – | – |
| CC(C)=CCc1c(O)ccc2c1O[C@H](c1ccc3c(c1)CC(O)C(C)(C)O3)CC2=O (some centres undefined) | – | 52.2 | – |
| COc1c(/C=C/C(=O)c2ccc(O)c(O)c2)ccc(O)c1CC=C(C)C | – | 59.5 | – |
| CC(C)=CCc1cc([C@@H]2CC(=O)c3c(O)cc(O)c(CC=C(C)C)c3O2)ccc1O [LESPEDEZAFLAVANONE B] | – | 62.4 | – |
| CC1(C)C=Cc2c(ccc3c2OC[C@@H](c2ccc(O)c4c2OC(C)(C)C=C4)C3)O1 | < 50 | – | – |
| O=C(/C=C/c1ccc(O[C@@H]2O[C@H](CO)[C@@H](O)[C@H](O)[C@H]2O)cc1)c1ccc(O)cc1O | < 50 | – | – |
| O=c1cc(-c2ccc(O)cc2)oc2c([C@@H]3O[C@H](CO)[C@@H](O)[C@H](O)[C@H]3O)c(O)c([C@@H]3OC[C@H](O)[C@H](O)[C@H]3O)c(O)c12 | < 50 | – | – |
| O=C1C[C@@H](c2ccc(O)cc2)Oc2cc(O)ccc21 | < 50 | – | – |
| O=c1cc(-c2ccc(O)cc2)oc2cc(O)ccc12 | < 50 | – | – |
| CCCCCCCCCCCCCCCC(=O)C1=C(O)[C@@H](CO)OC1=O | – | 4.6 | – |
| CC1(C)C=Cc2cc(/C=C/C(=O)c3ccc(O)cc3O)ccc2O1 | – | 44.3 | – |
| COc1c([C@H]2c3c(cc(O)c(O)c3OC)C=C(C(=O)c3ccc(O)cc3)[C@H]2C(=O)c2ccc(O)cc2)ccc(O)c1O (relative stereo) | – | 36.2 | – |
| COc1ccc2c(c1)O[C@H]1c3ccc(O)c(CC=C(C)C)c3OC[C@@H]21 | < 50 | – | – |
| COc1c(CC=C(C)C)c(O)cc(O)c1-c1oc2cc(O)ccc2c1C | – | – | inhibition [3]: 4%; inhibition [4]: 35% |

| Structure (SMILES) | inhibition [1] [%] | IC50 [2] [µM] | also measured |
| --- | --- | --- | --- |
| COc1cc(O)ccc1/C=C/C(=O)c1ccc(O)cc1 | < 50 | – | – |
| COc1c(/C=C/C(=O)c2ccc(O)cc2)ccc2c1CC(C(C)(C)O)O2 (centres undefined) | < 50 | – | – |
| CC1(C)C=Cc2c(ccc(C(=O)/C=C/c3ccc(O)cc3)c2O)O1 | – | 74.1 | – |
| COc1ccc([C@@H]2COc3c(ccc4c3C=CC(C)(C)O4)C2)c(O)c1 | < 50 | – | – |
| O=c1cc(-c2ccc(O)cc2)oc2c([C@@H]3O[C@H](CO)[C@@H](O)[C@H](O)[C@H]3O)c(O)c([C@@H]3O[C@H](CO)[C@@H](O)[C@H](O)[C@H]3O)c(O)c12 | < 50 | – | – |
| CC1(C)C=Cc2c(ccc(-c3coc4cc(O)ccc4c3=O)c2O)O1 [GLABRONE] | – | 66.3 | – |
| COc1ccc(-c2coc3cc(O)c(OC)cc3c2=O)cc1O [ODORATIN] | – | 70 | – |
| CC(C)=CCc1c(O)ccc(C(=O)/C=C/c2ccc(O)cc2)c1O [ISOBAVACHALCONE] | – | 27.3 | inhibition [3]: 4%; inhibition [4]: > 70%; inhibition [7]: Active |
| CC(C)=CCc1c(O)ccc2c1O[C@H](c1ccc3c(c1)C=CC(C)(C)O3)CC2=O | < 50 | – | – |
| COc1c(/C=C/C(=O)c2ccc(O)cc2)ccc(O)c1O | < 50 | – | – |
| CC(C)=CCc1cc(C[C@@H](O)C(=O)c2cc(CC=C(C)C)c(O)cc2O)ccc1O | – | 90.5 | – |
| O=C1C[C@@H](c2ccc(O[C@@H]3O[C@H](CO)[C@@H](O)[C@H](O)[C@H]3O)cc2)Oc2cc(O)ccc21 | < 50 | – | – |
| CC(C)=CCc1cc([C@@H]2CC(=O)c3ccc(O)c(CC=C(C)C)c3O2)ccc1O [GLABROL] | – | 37.5 | – |
| CC(C)=CCc1cc([C@H]2Oc3c(ccc(O)c3CC=C(C)C)C(=O)[C@@H]2O)ccc1O | – | 75.1 | – |
| CC1(C)C=Cc2cc(C(=O)CC(=O)c3ccc(O)cc3)c(O)cc2O1 | < 50 | – | – |
| COc1cc(O)cc2occ(-c3cc(O)c(O)c(CC=C(C)C)c3)c(=O)c12 | – | – | inhibition [3]: 4%; inhibition [4]: > 70% |
| CC1(C)C=Cc2c(ccc3c2OC[C@@H](c2ccc(O)cc2O)C3)O1 [GLABRIDIN] | – | 73.4 | – |
| CC(C)=CCc1cc([C@]23Oc4cc(O)c(CC=C(C)C)cc4C(=O)[C@H]2[C@H]2c4ccc(O)cc4O[C@@H]4Oc5c(ccc(O)c5CC=C(C)C)[C@@]42O3)ccc1O [LICOAGRODIN] | – | 11.5 | inhibition [3]: 4%; inhibition [4]: 50%; inhibition [7]: Active |
| CC(C)=CCc1c(O)ccc2c1O/C(=C\c1ccc(O)c(O)c1)C2=O [LICOAGROAURONE] | – | 23.9 | Kic [8]: 24 µM; inhibition [3]: 4%; inhibition [4]: 50% |
| CC(C)=CCc1cc(C(=O)CC(=O)c2cc(CC=C(C)C)c(O)cc2O)ccc1O | – | 32.6 | – |
| CC(C)=CCc1c(O)ccc2c1oc(=O)c1c3ccc(O)cc3oc21 | < 50 | – | – |
| CC1(C)C=Cc2cc([C@@H]3CC(=O)c4ccc5c(c4O3)C=CC(C)(C)O5)ccc2O1 | < 50 | – | – |
